Test results taken from patent publication US12168012B2, “NLRP3 inflammasome inhibitors” (Novartis AG, priority 2018, dated 2024).

Tests used:
[1] = system: NLRP3 inflammasome; assay: IL-1β secretion assay; format: cell-based; settings: Homo sapiens, THP-1, 3 h, PMA-differentiated THP-1 cells, 15 μM nigericin, HTRF
Outline: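 PMA-differentiated THP-1 cells stimulated with nigericin to trigger NLRP3-dependent IL-1β secretion, measured by HTRF after 3 h. Viability/pyroptosis monitored with PrestoBlue. IC50 from logistic fit of % inhibition vs concentration with Hill coefficient.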

[2] = system: NF-kB-dependent TNF-α secretion; assay: TNF-α secretion assay (counterscreen); format: cell-based; settings: Homo sapiens; THP-1 cells, Pam3CSK4-stimulated, 3 hours, HTRF
Outline: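 Undifferentiated THP-1 cells, rested overnight, given compound then stimulated with 1 μg/mL LPS or 100 ng/mL Pam3CSK4 for 3 hours. Supernatant TNF-α measured by HTRF; IC50 from four-parameter logistic fit of % inhibition versus concentration, with viability monitored.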

For `CC(C)(O)c1nn(CC(=O)N[C@@H]2CCCNC2)c(=O)c2cc3sc(Cl)cc3n12` [Ex 79, (R)-2-(2-Chloro-5-(2-hydroxypropan-2-yl)-8-oxothieno[2′,3′:4,5]pyrrolo[1,2-d][1,2,4]triazin-7(8H)-yl)-N-(piperidin-3-yl)acetamide], the IC50 [1] was 244 nM and the IC50 [2] was greater than 100 µM.

With `CC(C)(O)c1nn(CC(=O)N[C@@H]2CCC[C@H](O)C2)c(=O)c2cc3sc(Cl)cc3n12` [Ex 81, 2-(2-Chloro-5-(2-hydroxypropan-2-yl)-8-oxothieno[2′,3′:4,5]pyrrolo[1,2-d][1,2,4]triazin-7(8H)-yl)-N-((1R,3S)-3-hydroxycyclohexyl)acetamide] the IC50 [1] was 3.9 nM and the IC50 [2] was greater than 100 µM.

Compound `CC(C)(O)c1nn(CC(=O)N[C@@H]2CCCN(CC(F)(F)F)C2)c(=O)c2cc3sc(Cl)cc3n12` [Ex 82, (R)-2-(2-Chloro-5-(2-hydroxypropan-2-yl)-8-oxothieno[2′,3′:4,5]pyrrolo[1,2-d][1,2,4]triazin-7(8H)-yl)-N-(1-(2,2,2-trifluoroethyl)piperidin-3-yl)acetamide] has an IC50 [1] of 42.2 nM and an IC50 [2] greater than 100 µM.

Compound `CC(C)(O)c1nn(CC(=O)N[C@@H]2CCC[C@@](C)(O)C2)c(=O)c2cc3sc(Cl)cc3n12` [Ex 83, 2-(2-Chloro-5-(2-hydroxypropan-2-yl)-8-oxothieno[2′,3′:4,5]pyrrolo[1,2-d][1,2,4]triazin-7(8H)-yl)-N-((1R,3R)-3-hydroxy-3-methylcyclohexyl)acetamide] has an IC50 [1] of 16.2 nM and an IC50 [2] greater than 100 µM.

Work on `CC(C)c1nn(CC(=O)N[C@@H]2CCCNC2)c(=O)c2cc3scnc3n12` [Ex 88, (R)-2-(5-Isopropyl-8-oxothiazolo[5′,4′:4,5]pyrrolo[1,2-d][1,2,4]triazin-7(8H)-yl)-N-(piperidin-3-yl)acetamide] yielded an IC50 [1] of 27.5 nM and an IC50 [2] greater than 100 µM.

`CC(C)c1nn(CC(=O)N[C@@H]2CCCN(CCF)C2)c(=O)c2cc3scnc3n12` [Ex 89, (R)-N-(1-(2-Fluoroethyl)piperidin-3-yl)-2-(5-isopropyl-8-oxothiazolo[5′,4′:4,5]pyrrolo[1,2-d][1,2,4]triazin-7(8H)-yl)acetamide] gave an IC50 [1] of 24.8 nM and an IC50 [2] greater than 100 µM.

Work on `CC(C)c1nn(CC(=O)N[C@@H]2CCC[C@@](C)(O)C2)c(=O)c2cc3scnc3n12` [Ex 90, N-((1R,3R)-3-Hydroxy-3-methylcyclohexyl)-2-(5-isopropyl-8-oxothiazolo[5′,4′:4,5]pyrrolo[1,2-d][1,2,4]triazin-7(8H)-yl)acetamide] yielded an IC50 [1] of 60.8 nM and an IC50 [2] greater than 100 µM.

Compound `CC(C)c1nn(CC(=O)N[C@@H]2CCC[C@H](O)C2)c(=O)c2cc3scnc3n12` [Ex 91, N-((1R,3S)-3-Hydroxycyclohexyl)-2-(5-isopropyl-8-oxothiazolo[5′,4′:4,5]pyrrolo[1,2-d][1,2,4]triazin-7(8H)-yl)acetamide] has an IC50 [1] of 1.9 nM and an IC50 [2] greater than 100 µM.

Work on `Cc1nc2c(cc3c(=O)n(CC(=O)NC4CC4)nc(C(C)C)n32)s1` [Ex 96, N-Cyclopropyl-2-(5-isopropyl-2-methyl-8-oxothiazolo[5′,4′:4,5]pyrrolo[1,2-d][1,2,4]triazin-7(8H)-yl)acetamide] yielded an IC50 [1] of 1040 nM and an IC50 [2] greater than 33 µM.

In the case of `CC(C)c1nn(CC(=O)N[C@H]2CCOC2)c(=O)c2cc3sc(Cl)cc3n12` [Ex 99, (S)-2-(2-Chloro-5-isopropyl-8-oxothieno[2′,3′:4,5]pyrrolo[1,2-d][1,2,4]triazin-7(8H)-yl)-N-(tetrahydrofuran-3-yl)acetamide], the IC50 [1] is reported as 537 nM and the IC50 [2] is reported as greater than 100 µM.

`CC(C)c1nn(CC(=O)N[C@@H]2CCOC2)c(=O)c2cc3sc(Cl)cc3n12` [Ex 100, (R)-2-(2-Chloro-5-isopropyl-8-oxothieno[2′,3′:4,5]pyrrolo[1,2-d][1,2,4]triazin-7(8H)-yl)-N-(tetrahydrofuran-3-yl)acetamide] was tested, and the IC50 [1] was 182 nM and the IC50 [2] was greater than 100 µM.

`CC(C)c1nn(CC(=O)N[C@@H]2CCNC2)c(=O)c2cc3sc(Cl)cc3n12` [Ex 103, (R)-2-(2-Chloro-5-isopropyl-8-oxothieno[2′,3′:4,5]pyrrolo[1,2-d][1,2,4]triazin-7(8H)-yl)-N-(pyrrolidin-3-yl)acetamide] gave an IC50 [1] of 190 nM and an IC50 [2] greater than 100 µM.

`CC(C)c1nn(CC(=O)NC2(CO)CC2)c(=O)c2cc3sc(Cl)cc3n12` [Ex 111, 2-(2-Chloro-5-isopropyl-8-oxothieno[2′,3′:4,5]pyrrolo[1,2-d][1,2,4]triazin-7(8H)-yl)-N-(1-(hydroxymethyl)cyclopropyl)acetamide] showed an IC50 [1] of 111 nM and an IC50 [2] greater than 100 µM.

Compound `COC(=O)C12CC(NC(=O)Cn3nc(C(C)C)n4c(cc5sc(Cl)cc54)c3=O)(C1)C2` [Ex 113, Methyl 3-(2-(2-chloro-5-isopropyl-8-oxothieno[2′,3′:4,5]pyrrolo[1,2-d][1,2,4]triazin-7(8H)-yl)acetamido)bicyclo[1.1.1]pentane-1-carboxylate] has an IC50 [1] of 5.8 nM and an IC50 [2] greater than 100 µM.

`CC(C)c1nn(CC(=O)NC23CC4CC(CC(O)(C4)C2)C3)c(=O)c2cc3sc(Cl)cc3n12` [Ex 114, 2-(2-Chloro-5-isopropyl-8-oxothieno[2′,3′:4,5]pyrrolo[1,2-d][1,2,4]triazin-7(8H)-yl)-N-((1S,3R,5S)-3-hydroxyadamantan-1-yl)acetamide] gave an IC50 [1] of 298 nM and an IC50 [2] greater than 11 µM.

Compound `CC(C)c1nn(CC(=O)NC23CC(N)(C2)C3)c(=O)c2cc3sc(Cl)cc3n12` [Ex 115, N-(3-Aminobicyclo[1.1.1]pentan-1-yl)-2-(2-chloro-5-isopropyl-8-oxothieno[2′,3′:4,5]pyrrolo[1,2-d][1,2,4]triazin-7(8H)-yl)acetamide] has an IC50 [1] of 172 nM and an IC50 [2] greater than 100 µM.

Work on `CC(C)c1nn(CC(=O)N[C@@H]2CCCN(C3CC3)C2)c(=O)c2cc3sc(Cl)cc3n12` [Ex 124, (R)-2-(2-Chloro-5-isopropyl-8-oxothieno[2′,3′:4,5]pyrrolo[1,2-d][1,2,4]triazin-7(8H)-yl)-N-(1-cyclopropylpiperidin-3-yl)acetamide] yielded an IC50 [1] of 0.9 nM and an IC50 [2] greater than 100 µM.

Compound `CC(C)c1nn(CC(=O)N[C@@H]2CCCN(C3CC3)C2)c(=O)c2cc3scnc3n12` [Ex 127, (R)-N-(1-Cyclopropylpiperidin-3-yl)-2-(5-isopropyl-8-oxothiazolo[5′,4′:4,5]pyrrolo[1,2-d][1,2,4]triazin-7(8H)-yl)acetamide] has an IC50 [1] of 4.2 nM and an IC50 [2] greater than 100 µM.

With `CC(C)c1nn(CC(=O)N[C@@H]2CCCN(C[C@@H](C)O)C2)c(=O)c2cc3sc(Cl)cc3n12` [Ex 128, 2-(2-Chloro-5-isopropyl-8-oxothieno[2′,3′:4,5]pyrrolo[1,2-d][1,2,4]triazin-7(8H)-yl)-N—((R)-1-((R)-2-hydroxypropyl)piperidin-3-yl)acetamide] the IC50 [1] was 4.5 nM and the IC50 [2] was greater than 100 µM.

For `CC(C)c1nn(CC(=O)N[C@@H]2CCCN(C[C@H](C)O)C2)c(=O)c2cc3sc(Cl)cc3n12` [Ex 129, 2-(2-Chloro-5-isopropyl-8-oxothieno[2′,3′:4,5]pyrrolo[1,2-d][1,2,4]triazin-7(8H)-yl)-N-((R)-1-((S)-2-hydroxypropyl)piperidin-3-yl)acetamide], the IC50 [1] was 3.1 nM and the IC50 [2] was greater than 100 µM.

In the case of `CC(C)c1nn(CC(=O)N[C@@H]2CCCN(CC(C)(C)O)C2)c(=O)c2cc3sc(Cl)cc3n12` [Ex 130, (R)-2-(2-Chloro-5-isopropyl-8-oxothieno[2′,3′:4,5]pyrrolo[1,2-d][1,2,4]triazin-7(8H)-yl)-N-(1-(2-hydroxy-2-methylpropyl)piperidin-3-yl)acetamide], the IC50 [1] is reported as 20.4 nM and the IC50 [2] is reported as greater than 100 µM.
